From US5591758A, “Organic nitrates, processes for their preparation and their use in the treatment of cardiovascular diseases” (Laboratoires Hoechst, SA, priority 1991, dated 1997)
Several values for one entry are separate records, joined by “and”; a condition that tells them apart may be missing. Equal entries are not always repeated. Structures can show the parent of a compound that is named as a salt.

System: anaesthetised dogs
Experiment: Tachyphylaxis model on anaesthetised dogs (repeated i.d. administration)
Assay type: in vivo, dogs (labrador/harrier cross)
Set-up: Δdp/dt average / ΔBPs / ΔBPd / ΔLVEDP / ΔHR / ΔBPs average / ΔBPd average / ΔLVEDP average / ΔHR average: unit not given here
Settings: for Δdp/dt / ΔBPd / ΔBPs / ΔHR / ΔLVEDP: single dog
Protocol: Comparison with isosorbide mononitrate (IS-5-MN).
The product (46) is tested in a tachyphylaxis model on anaesthetised dogs. IS-5-MN is used as reference substance.
8 dogs of each sex, weighing between 16 and 24 kg, are used. These dogs are the progeny of a labrador/harrier cross. Anaesthesia is induced with the aid of sodium pentobarbital (45 mg/kg i.v.) and maintained by i.v. perfusion (flow rate: 8 mg/kg/h). The animals are ventilated, with the aid of a "Bird Mark 7" respirator, using ambient air, and catheterised. […] The arterial blood gases are measured at regular intervals.
IS-5-MN is also dissolved in water and given i.d. in a dosage of 5 mg/kg in a volume of 10 ml/animal.
Three hours (in the case of IS-5-MN) or four hours (in the case of (46)) after the first administration, the compounds are readministered in the same dosage and by the same route. The haemodynamic parameter chosen for the study of the tachyphylaxis is the systolic blood pressure (BPs), insofar as this parameter is very sensitive to the administration of the compounds.

[1] = i.d., IS-5-MN 5 mg/kg, (46) 0.75 mg/kg
[2] = n = 4, 1st administration, 0.75 mg/kg i.d., 5 min
[3] = n = 4, 1st administration, 0.75 mg/kg i.d., 10 min
[4] = n = 4, 1st administration, 0.75 mg/kg i.d., 15 min
[5] = n = 4, 1st administration, 0.75 mg/kg i.d., 30 min
[6] = n = 4, 1st administration, 0.75 mg/kg i.d., 60 min
[7] = n = 4, 1st administration, 0.75 mg/kg i.d., 120 min
[8] = n = 4, 1st administration, 0.75 mg/kg i.d., 180 min
[9] = n = 4, 1st administration, 0.75 mg/kg i.d., 240 min
[10] = n = 4, 2nd administration, 0.75 mg/kg i.d., 5 min
[11] = n = 4, 2nd administration, 0.75 mg/kg i.d., 10 min
[12] = n = 4, 2nd administration, 0.75 mg/kg i.d., 15 min
[13] = n = 4, 2nd administration, 0.75 mg/kg i.d., 30 min
[14] = n = 4, 2nd administration, 0.75 mg/kg i.d., 60 min
[15] = n = 4, 2nd administration, 0.75 mg/kg i.d., 120 min
[16] = 1st administration, 0.75 mg/kg i.d., 5 min, monohydrochloride, 0.75 mg/kg
[17] = 1st administration, 0.75 mg/kg i.d., 10 min, monohydrochloride, 0.75 mg/kg
[18] = 1st administration, 0.75 mg/kg i.d., 15 min, monohydrochloride, 0.75 mg/kg
[19] = 1st administration, 0.75 mg/kg i.d., 30 min, monohydrochloride, 0.75 mg/kg
[20] = 1st administration, 0.75 mg/kg i.d., 60 min, monohydrochloride, 0.75 mg/kg
[21] = 1st administration, 0.75 mg/kg i.d., 120 min, monohydrochloride, 0.75 mg/kg
[22] = 1st administration, 0.75 mg/kg i.d., 180 min, monohydrochloride, 0.75 mg/kg
[23] = 1st administration, 0.75 mg/kg i.d., 240 min, monohydrochloride, 0.75 mg/kg
[24] = 2nd administration, 0.75 mg/kg i.d., 5 min
[25] = 2nd administration, 0.75 mg/kg i.d., 5 min, monohydrochloride, 0.75 mg/kg
[26] = 2nd administration, 0.75 mg/kg i.d., 10 min
[27] = 2nd administration, 0.75 mg/kg i.d., 10 min, monohydrochloride, 0.75 mg/kg
[28] = 2nd administration, 0.75 mg/kg i.d., 15 min, monohydrochloride, 0.75 mg/kg
[29] = 2nd administration, 0.75 mg/kg i.d., 30 min, monohydrochloride, 0.75 mg/kg
[30] = 2nd administration, 0.75 mg/kg i.d., 60 min, monohydrochloride, 0.75 mg/kg
[31] = 2nd administration, 0.75 mg/kg i.d., 120 min, monohydrochloride, 0.75 mg/kg

Compound: O=C(CNC(=O)[C@@H]1CSCN1)N[C@H]1CO[C@H]2[C@@H]1OC[C@@H]2O[N+](=O)[O-] [Compound 46, 5-[[2-[[(4-L-Thiazolidinyl)carbonyl]amino]-1oxoethyl]amino]-5-deoxy-2-O-nitro-1,4:3,6-dianhydro-L-iditol monohydrochloride]
- fall in the BPs, first administration, on average (0.75 mg/kg i.d.): -30 mmHg
- period of action (compared with IS-5-MN, first administration): longer
- development of tachyphylaxis after repeated administration (dogs, two i.d. administrations): absence of the development of tachyphylaxis
- maximum fall in the BP after second administration [1]: -33 mmHg
- time of maximum effect on BPs after first administration [1]: 60 min
- time of maximum fall in the BP after second administration [1]: 60 min
- ΔBPd average [2]: -4
- ΔBPs average [2]: -5
- ΔHR average [2]: -1
- ΔLVEDP average [2]: -0
- Δdp/dt average [2]: 0
- ΔBPd average [3]: -11
- ΔBPs average [3]: -18
- ΔHR average [3]: -1
- ΔLVEDP average [3]: -2
- Δdp/dt average [3]: -100
- ΔBPd average [4]: -16
- ΔBPs average [4]: -26
- ΔHR average [4]: -1
- ΔLVEDP average [4]: -2
- Δdp/dt average [4]: -125
- ΔBPd average [5]: -20
- ΔBPs average [5]: -30
- ΔHR average [5]: -2
- ΔLVEDP average [5]: -2
- Δdp/dt average [5]: -150
- ΔBPd average [6]: -20
- ΔBPs average [6]: -33
- ΔHR average [6]: -8
- ΔLVEDP average [6]: -3
- Δdp/dt average [6]: -200
- ΔBPd average [7]: -20
- ΔBPs average [7]: -31
- ΔHR average [7]: -10
- ΔLVEDP average [7]: -4
- Δdp/dt average [7]: -250
- ΔBPd average [8]: -15
- ΔBPs average [8]: -24
- ΔHR average [8]: -6
- ΔLVEDP average [8]: -4
- Δdp/dt average [8]: -150
- ΔBPd average [9]: -7
- ΔBPs average [9]: -12
- ΔHR average [9]: 0
- ΔLVEDP average [9]: -4
- Δdp/dt average [9]: 25
- ΔBPd average [10]: -5
- ΔBPs average [10]: -6
- ΔHR average [10]: 0
- ΔLVEDP average [10]: 0
- Δdp/dt average [10]: -50
- ΔBPd average [11]: -6
- ΔBPs average [11]: -11
- ΔHR average [11]: 0
- ΔLVEDP average [11]: 0
- Δdp/dt average [11]: -75
- ΔBPd average [12]: -10
- ΔBPs average [12]: -18
- ΔHR average [12]: -1
- ΔLVEDP average [12]: 0
- Δdp/dt average [12]: -125
- ΔBPd average [13]: -15
- ΔBPs average [13]: -25
- ΔHR average [13]: -1
- ΔLVEDP average [13]: -1
- Δdp/dt average [13]: -225
- ΔBPd average [14]: -19
- ΔBPs average [14]: -33
- ΔHR average [14]: -4
- ΔLVEDP average [14]: -2
- Δdp/dt average [14]: 350
- ΔBPd average [15]: -15
- ΔBPs average [15]: -26
- ΔHR average [15]: -2
- ΔLVEDP average [15]: -2
- Δdp/dt average [15]: -275
- Δdp/dt (1st administration, 0.75 mg/kg i.d., 5 min): 0
- ΔBPd [16]: -5 and 0
- ΔBPs [16]: -5 and -10 and 0
- ΔHR [16]: 0 and -5
- ΔLVEDP [16]: 0 and -1
- Δdp/dt (1st administration, 0.75 mg/kg i.d., 10 min): -100
- ΔBPd [17]: -10 and -15
- ΔBPs [17]: -15 and -20
- ΔHR [17]: 0 and -5
- ΔLVEDP [17]: -2 and 0 and -3
- ΔBPd [18]: -15 and -20
- ΔBPs [18]: -25 and -20 and -35
- ΔHR [18]: 0 and -5
- ΔLVEDP [18]: -3 and -2 and 1
- Δdp/dt [18]: -100 and -200
- ΔBPd [19]: -20 and -15 and -25
- ΔBPs [19]: -30 and -20 and -40
- ΔHR [19]: -5 and 0
- ΔLVEDP [19]: -4 and -2 and 1
- Δdp/dt [19]: -100 and -200
- ΔBPd [20]: -20 and -25 and -10
- ΔBPs [20]: -30 and -35 and -15 and -50
- ΔHR [20]: -10 and -5
- ΔLVEDP [20]: -3 and -2 and -4
- Δdp/dt [20]: -200 and -300 and 0
- ΔBPd [21]: -20 and -25 and -10
- ΔBPs [21]: -30 and -35 and -15 and -45
- ΔHR [21]: -15 and 5
- ΔLVEDP [21]: -2 and -6 and -4
- Δdp/dt [21]: -200 and -300
- ΔBPd [22]: -20 and -5 and -15
- ΔBPs [22]: -25 and -30 and -10
- ΔHR [22]: -10 and -15 and 10
- ΔLVEDP [22]: -3 and -2 and -7 and -4
- Δdp/dt [22]: -200 and -300 and -100 and 0
- ΔBPd [23]: -10 and -20 and 0
- ΔBPs [23]: -15 and -20 and 0
- ΔHR [23]: -5 and -10 and 0 and 15
- ΔLVEDP [23]: -4 and -3 and -7
- Δdp/dt [23]: -100 and 0 and 300
- ΔBPd [24]: -5
- ΔHR [24]: 0
- ΔBPs [25]: -5 and -10
- ΔLVEDP [25]: 0 and 1
- Δdp/dt [25]: 0 and -100
- ΔHR [26]: 0
- ΔLVEDP [26]: 0
- ΔBPd [27]: -10 and -5
- ΔBPs [27]: -15 and -5 and -10
- Δdp/dt [27]: 0 and -100 and -200
- ΔBPd [28]: -15 and -10 and -5
- ΔBPs [28]: -20 and -15
- ΔHR [28]: -5 and 0
- ΔLVEDP [28]: -1 and 2 and 0
- Δdp/dt [28]: -100 and 0 and -300
- ΔBPd [29]: -15 and -10 and -25
- ΔBPs [29]: -25 and -20 and -35
- ΔHR [29]: 0 and -5
- ΔLVEDP [29]: -1 and 0 and -2
- Δdp/dt [29]: -100 and -600
- ΔBPd [30]: -15 and -10 and -35
- ΔBPs [30]: -30 and -20 and -50
- ΔHR [30]: -5 and -10 and 0
- ΔLVEDP [30]: -1 and -3
- Δdp/dt [30]: -100 and -200 and -900
- ΔBPd [31]: -10 and -15 and -25
- ΔBPs [31]: -20 and -30 and -35
- ΔHR [31]: 0 and -15 and 5
- ΔLVEDP [31]: -1 and -2 and -3
- Δdp/dt [31]: -100 and -200 and -600
